# From US5948814A, “Genistein for the treatment of cystic fibrosis” (priority 1998, dated 1999)
# Where two headings read alike, the source gives them in different places.
# Legend:
# wt-CFTR = wt-CFTR (Homo sapiens, UniProt P13569); conditions: for TC1 (short mean closed time) / TC2 (long mean closed time) / TO1 (mean open time) / TO2 (long mean open time): Table 1
# Experimental: (A): continuous recordings, 4 minutes in length, of a cell-attached patch of wt-CFTR in the presence of 10 μM forskolin or 10 μM forskolin+50 μM genistein are shown. […] (B): dwell-time analysis of (A).
# A continuous recording, 12 minutes in length, of cell-attached patch is shown. wt-CFTR was activated with 50 μM forskolin prior to start of trace and was present throughout recording Genistein (50 μM) was present as indicated.
# (§1) Electrophysiology: CFTR channel currents were recorded at room temperature (~22° C.) with a patch-clamp amplifier (EPC-9, Heka Electronic), filtered at 100 Hz with a built-in three-pole Bessel filter, and stored on videotapes. Data were subsequently refiltered at 25 Hz with an eight-pole Bessel filter (Frequency Device, Havervill, Mass.) and captured onto a hard disk at a sampling rate of 50 Hz. […] Patch-clamp electrodes were made from Corning 7052 glass capillaries (Warner Instrument, Hammed, Conn.). The pipette resistance was usually 3-5 M.OMEGA., and the seal resistance was >20 G.OMEGA.. The pipette solution contained (in mM) 140 N-methyl-D-glucamine chloride (NMDG-C1), 2 MgCl2, 5Ca Cl2, and 10 HEPES (pH 7.4 with NMDG). The superfusion solution contained (in mM) 150 […], 2 MgCl2, 1 EGTA, 5 glucose, and 5 HEPES (pH 7.4 with NaOH). In excised inside-out patch experiments, the bath solution contained (in mM) 130 MNDG-Cl, 10 EGTA, 10 HEPES, 20 tetraethylammonium chloride, 8 Tris, and 2 MgCl2 (pH 7.4 with NMDG). Pipette potential was held at 50 mV relative to the bath. Downward deflections represent channel opening.
# (§2) Statistics: Mean currents and variance were estimated with Igor (Wavemetrics, Lake Oswego, Oreg.). Parameters for mean current-variance relationships and dose-response curves were obtained from least-square fitting with Sigmaplot (Jandel, San Rafael, Calif.). Po was calculated from patches containing a single channel by dividing the […]. Dwell-time analysis was described previously [Baukrowitz et al., 1994]. Calculated values are presented as means±SE. Comparisons among data were made using the Student's t-test with P<0.05 considered significant.
# To determine how genistein increases Po, the effects of genistein on single-channel kinetics were examined in cell-attached patches using dwell-time analysis. […] Both traces were recorded in the presence of 10 μM forskolin; 50 μM genistein was added prior to the start of the lower trace.
# ΔF508-CFTR = ΔF508-CFTR (Homo sapiens, UniProt P13569, DEL508-508); test: Single-channel kinetics (dwell-time analysis), cell-attached patches; format: cell-based; design: expressed in transfected cells; host or cells: NIH/3T3 cells, stably transfected (NIH/3T3-ΔF508, gift of Dr. Richard Mulligan)
# Chain of ΔF508-CFTR (P13569 with tags, fused parts or gaps DEL508-508): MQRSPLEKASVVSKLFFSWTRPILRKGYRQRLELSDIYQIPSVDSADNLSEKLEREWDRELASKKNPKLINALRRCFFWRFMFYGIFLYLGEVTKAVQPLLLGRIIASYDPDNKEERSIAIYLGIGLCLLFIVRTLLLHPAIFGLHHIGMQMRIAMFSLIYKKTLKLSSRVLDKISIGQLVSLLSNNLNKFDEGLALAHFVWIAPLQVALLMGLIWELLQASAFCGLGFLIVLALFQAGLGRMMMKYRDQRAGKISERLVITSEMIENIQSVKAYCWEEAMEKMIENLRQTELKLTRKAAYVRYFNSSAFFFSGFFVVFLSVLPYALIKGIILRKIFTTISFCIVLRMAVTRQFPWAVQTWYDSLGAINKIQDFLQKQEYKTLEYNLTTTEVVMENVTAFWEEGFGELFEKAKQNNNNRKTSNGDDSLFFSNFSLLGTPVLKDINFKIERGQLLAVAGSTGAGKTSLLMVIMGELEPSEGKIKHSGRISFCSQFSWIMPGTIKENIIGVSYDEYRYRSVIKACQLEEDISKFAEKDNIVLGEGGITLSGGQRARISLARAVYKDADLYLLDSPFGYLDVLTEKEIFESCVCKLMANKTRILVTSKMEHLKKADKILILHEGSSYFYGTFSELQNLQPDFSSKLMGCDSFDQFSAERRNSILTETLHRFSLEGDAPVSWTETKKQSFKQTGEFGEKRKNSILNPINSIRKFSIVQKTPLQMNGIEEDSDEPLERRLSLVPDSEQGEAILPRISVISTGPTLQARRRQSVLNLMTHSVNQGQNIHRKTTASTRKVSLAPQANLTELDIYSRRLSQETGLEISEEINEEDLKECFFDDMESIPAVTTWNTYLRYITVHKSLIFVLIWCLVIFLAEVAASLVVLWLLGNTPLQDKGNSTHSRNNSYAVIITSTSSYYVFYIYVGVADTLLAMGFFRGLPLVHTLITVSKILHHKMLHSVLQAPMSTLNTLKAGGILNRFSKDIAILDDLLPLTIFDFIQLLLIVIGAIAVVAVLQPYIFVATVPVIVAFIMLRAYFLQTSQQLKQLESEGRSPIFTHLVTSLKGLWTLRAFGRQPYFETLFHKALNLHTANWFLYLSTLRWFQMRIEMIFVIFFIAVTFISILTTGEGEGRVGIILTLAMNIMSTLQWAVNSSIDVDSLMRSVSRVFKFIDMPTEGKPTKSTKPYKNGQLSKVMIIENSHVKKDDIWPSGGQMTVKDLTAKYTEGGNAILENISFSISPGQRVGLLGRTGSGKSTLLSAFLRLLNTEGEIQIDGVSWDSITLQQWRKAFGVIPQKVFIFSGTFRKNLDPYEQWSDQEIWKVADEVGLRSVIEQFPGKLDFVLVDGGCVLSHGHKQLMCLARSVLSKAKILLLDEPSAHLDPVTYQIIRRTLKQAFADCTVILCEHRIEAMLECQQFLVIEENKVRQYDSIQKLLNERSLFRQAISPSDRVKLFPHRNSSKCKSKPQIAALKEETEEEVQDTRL
# Experimental: FIGS. 3A and B show recordings of the potentiation of wild-type (wt) and ΔF508-CFTR channel activity by genistein. Channels in cell-attached patches from NIH/3T3-CFTR (FIG. 3A) and NIH/3T3-ΔF508cells (FIG. 3B), were stimulated as indicated with 10 μM forskolin and 50μ genestein.
# as §1, §2
# To determine how genistein increases Po, the effects of genistein on single-channel kinetics were examined in cell-attached patches using dwell-time analysis. […] Both traces were recorded in the presence of 10 μM forskolin; 50 μM genistein was added prior to the start of the lower trace. […] The mean open times for ΔF508-CFTR were also determined. However, since cell-attached patches containing a single ΔF508-CFTR channel were not observed, a direct assessment of the closed times for ΔF508-CFTR cannot be made. Dwell-time analysis of pooled open times were performed on 14 patches where individual openings of ΔF508-CFTR could be clearly identified.
# Table 1. Values are means±SE.
# [1] = 50 nM forskolin and 60 μM genistein (so in the source)
# [2] = 10 μM forskolin + 50 μM genistein
# [3] = Table 1, 10 μM forskolin + 50 μM genistein
# [4] = 50 nM forskolin, single exponential fit
# Chain of wt-CFTR (P13569 whole entry): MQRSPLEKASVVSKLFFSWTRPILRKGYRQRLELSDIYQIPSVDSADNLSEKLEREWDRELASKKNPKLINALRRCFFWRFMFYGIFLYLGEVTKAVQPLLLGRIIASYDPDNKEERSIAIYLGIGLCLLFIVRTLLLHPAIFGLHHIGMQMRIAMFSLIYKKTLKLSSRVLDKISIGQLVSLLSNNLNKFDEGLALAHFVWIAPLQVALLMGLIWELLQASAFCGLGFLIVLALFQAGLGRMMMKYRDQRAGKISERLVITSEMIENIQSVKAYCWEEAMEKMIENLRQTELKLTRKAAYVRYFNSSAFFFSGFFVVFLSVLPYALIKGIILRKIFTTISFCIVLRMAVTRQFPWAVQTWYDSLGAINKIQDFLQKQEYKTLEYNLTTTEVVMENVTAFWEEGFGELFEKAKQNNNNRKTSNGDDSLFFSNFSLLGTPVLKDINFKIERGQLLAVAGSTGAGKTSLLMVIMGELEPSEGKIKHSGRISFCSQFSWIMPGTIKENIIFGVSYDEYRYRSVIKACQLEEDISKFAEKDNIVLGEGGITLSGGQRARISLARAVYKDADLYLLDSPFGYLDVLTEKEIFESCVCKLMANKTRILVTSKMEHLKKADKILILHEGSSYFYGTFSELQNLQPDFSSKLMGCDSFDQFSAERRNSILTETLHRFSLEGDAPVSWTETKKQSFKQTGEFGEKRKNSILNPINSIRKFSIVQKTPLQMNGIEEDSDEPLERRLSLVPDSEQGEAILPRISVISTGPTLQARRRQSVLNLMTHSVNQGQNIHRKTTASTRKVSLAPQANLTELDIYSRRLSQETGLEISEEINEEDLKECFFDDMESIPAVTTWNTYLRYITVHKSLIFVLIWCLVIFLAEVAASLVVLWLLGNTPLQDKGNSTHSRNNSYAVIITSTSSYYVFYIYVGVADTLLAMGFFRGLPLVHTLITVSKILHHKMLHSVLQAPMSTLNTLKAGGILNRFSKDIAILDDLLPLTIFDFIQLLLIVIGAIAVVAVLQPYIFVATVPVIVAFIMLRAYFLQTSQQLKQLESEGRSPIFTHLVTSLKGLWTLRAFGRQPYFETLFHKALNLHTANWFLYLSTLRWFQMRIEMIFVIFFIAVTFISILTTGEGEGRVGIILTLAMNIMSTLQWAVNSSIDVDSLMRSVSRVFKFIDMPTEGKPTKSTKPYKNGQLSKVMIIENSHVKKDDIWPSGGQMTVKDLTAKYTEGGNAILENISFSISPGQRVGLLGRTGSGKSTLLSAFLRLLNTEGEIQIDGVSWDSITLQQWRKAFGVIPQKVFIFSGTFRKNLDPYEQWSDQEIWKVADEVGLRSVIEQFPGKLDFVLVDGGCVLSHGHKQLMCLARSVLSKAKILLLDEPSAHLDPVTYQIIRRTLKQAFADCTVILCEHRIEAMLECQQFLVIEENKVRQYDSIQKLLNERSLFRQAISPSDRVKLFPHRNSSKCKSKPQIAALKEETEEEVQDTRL
smiles,measurement,setting,value
"O=c1c(-c2ccc(O)cc2)coc2cc(O)cc(O)c12 [Genistein, 4',5,7-trihydroxyisoflavone]",increase in Po by genistein,wt-CFTR; 50 nM forskolin,> 10 fold
same,mean closed time,wt-CFTR; [1],~ 2.5 seconds
same,mean open time,wt-CFTR; [1],~ 3.0 seconds
same,open probability Po,wt-CFTR; 50 nM forskolin plus 50 μM genistein,0.79
same,open probability Po,"wt-CFTR; 10 μM forskolin plus 50 μM genistein, four channels",0.71±0.06
same,TC1 (short mean closed time),wt-CFTR; [2],0.49 ± 0.08
same,TC2 (long mean closed time),wt-CFTR; [2],3.76 ± 1.09
same,TO1 (mean open time),wt-CFTR; [2],0.28 ± 0.11
same,TO2 (long mean open time),"wt-CFTR; 10 μM forskolin + 50 μM genistein, significant, <0.05",2.10 ± 0.30
same,effect on long closed time,"wt-CFTR; wt-CFTR, FIG. 7",dramatically decreases the long closed time
same,increase of TO2 of forskolin-activated ΔF508-CFTR current by genistein,ΔF508-CFTR; 10 μM forskolin,two-to threefold
same,TO1 (mean open time),ΔF508-CFTR; [3],0.31 ± 0.17
same,TO2 (long mean open time),ΔF508-CFTR; [3],2.63 ± 0.37
C=C[C@@]1(C)CC(=O)[C@]2(O)[C@@]3(C)[C@@H](O)CCC(C)(C)[C@@H]3[C@H](O)[C@H](OC(C)=O)[C@@]2(C)O1 [forskolin],TC2,wt-CFTR; 50 nM forskolin,~ 22 seconds
same,open probability Po,wt-CFTR; 50 nM forskolin,0.07
same,mean closed time,wt-CFTR; [4],~ 22 seconds
same,mean open time,wt-CFTR; [4],~ 0.9 seconds
same,TC2,wt-CFTR; 10 μM forskolin,~ 3 seconds
same,open probability Po,"wt-CFTR; 10 μM forskolin, four channels",0.27±0.03
same,TC1 (short mean closed time),wt-CFTR; 10 μM forskolin,0.39 ± 0.11
same,TC2 (long mean closed time),wt-CFTR; 10 μM forskolin,2.98 ± 0.81
same,TO1 (mean open time),wt-CFTR; 10 μM forskolin,0.24 ± 0.01
same,TO2 (long mean open time),wt-CFTR; 10 μM forskolin,0.88 ± 0.09
same,increase of long closed time on reducing forskolin,wt-CFTR; forskolin reduced from 10 μM to 50 nM,~ 10 fold
same,average long closing time,"ΔF508-CFTR; 10 μM forskolin alone, at least 5 channels in patch",6.1 s
same,"TO2 (so in the source), estimated","ΔF508-CFTR; 10 μM forskolin, from observed closed time and minimal number of channels",about 30 seconds
same,TO1 (mean open time),"ΔF508-CFTR; Table 1, 10 μM forskolin",0.30 ± 0.11
same,TO2 (long mean open time),"ΔF508-CFTR; Table 1, 10 μM forskolin",0.92 ± 0.12
same,"TC2 (long mean closed time), estimation","ΔF508-CFTR; Table 1, 10 μM forskolin, estimated from observed closed time and minimum number of channels",> 30
